# Experiments:
# Type in all cases: in vivo
# mice [1] = assay: Foot Shock (blocking of foot shock-induced fighting in pairs of mice); settings: oral, 1 hour prior to second shocking, three out of three pairs blocked from fighting
# Procedure: This test is a screen for compounds having muscle relaxant and/or anti-anxiety (tranquilizer) activity. A pair of mice is confined under a 1 liter beaker placed on a grid which presents shock to the feet. At least five fighting episodes are elicited in a 2-minute period. Pairs of mice are marked and pretreated by oral dosage 1 hour prior to a second shocking. Logarithmic-dose intervals are utilized up to a maximum of 100 mg/kgm. At the 100 per cent blocking dose, three out of three pairs must be blocked from fighting.
# mice [2] = assay: Inclined Screen (paralyzing effects, muscle relaxant and/or sedative activity); settings: Mus musculus, 4 h; male mice, at least four hours observation; dose expected to cause 50 per cent of mice to slide off the screen; read-out: Inclined Screen PD50
# Procedure: The test is useful in determining muscle relaxant and/or sedative activity. Groups of six male mice are given the test drug (maximum dose of 500 mg/kg.) and then are left on the inclined screen at least four hours for observation of paralyzing effects severe enough to cause them to slide off the screen. If activity is observed, additional doses are tested until at least two are reached at which some, but not all the animals slide off the screen. Doses at which mice fall off the screen due to toxicity or excitation are not included in the calculation of PD50. The PD50 is determined from a graph on which dose is plotted against per cent of mice paralyzed. This PD50 value is defined as the dose in mg/kg. which can be expected to cause 50 per cent of mice to slide off the screen.
# Cats = assay: Unanesthetized Cat (minimum symptoms, usually ataxia; muscle relaxant activity); settings: Felis catus, oral, read-out: Unanesthetized Cat MED
# Procedure: Cats are treated orally and observed for minimum symptoms--usually ataxia. One cat is used at a dose of 50 mgm/kgm. If activity is present, up to three cats/dose are used. Results are given as minimum effective dose. This test is useful in determining muscle relaxant activity.
# mice [3] = assay: Antimetrazol (protection from metrazol-induced convulsive seizures); settings: Mus musculus, oral, 1 hour before metrazol ~125 mg/kg s.c., 50 per cent of animals protected from convulsive seizures, read-out: Antimetrazole ED50
# Procedure: This test determines anticonvulsant and/or sedative activity of compounds in mice. The test compound is administered orally to groups of four mice at various dose levels. One hour later, metrazol (at a dose level previously determined to be sufficient to induce convulsive seizures in all test animals ~125 mg/kg.) is administered subcutaneously and the animals are observed for protection from convulsive seizures. Results are recorded as the number of animals protected against convulsions. The dose at which 50 per cent of the animals are protected from convulsive seizures is expressed as the ED50.
SMILES,Footshock 100% Blocking Dose Level (mice [1]) [mg],ED50 (mice [2]) [mg/kg],minimal effective dose (Cats) [mg/kg],ED50 (mice [3]) [mg/kg]
"O=C1CN2CCOC2(c2ccccc2F)c2cc(Cl)ccc2N1CCO (stereo not shown) [Compound B, 10-Chloro-11b-(2-fluorophenyl)-7-(2-hydroxyethyl)-2,3,5,11b-tetrahydrooxazolo[3,2-d][1,4]benzodiazepin-6(7H)-one]",4,15,5,2.03
"O=C1CN2CCOC2(c2ccccc2)c2cc(Cl)ccc2N1CCO (stereo not shown) [Compound A, 10-chloro-7-(2-hydroxyethyl)-2,3,5,11b-tetrahydro-11b-phenyloxazolo[3,2-d][1,4]benzodiazepin-6-(7H)-one]",20,50,5,
